Source: BigSolDB 2.1

ON(Cc1ccccc1)Cc1ccccc1
Settings | solubility (mole fraction)
in 1,2,4-trichlorobenzene, 293.75 K | 0.00704
in 1,2,4-trichlorobenzene, 299.15 K | 0.0103
in 1,2,4-trichlorobenzene, 303.25 K | 0.0138
in 1,2,4-trichlorobenzene, 308.45 K | 0.0198
in 1,2,4-trichlorobenzene, 313.15 K | 0.0263
in 1,2,4-trichlorobenzene, 318.15 K | 0.0367
in 1,2,4-trichlorobenzene, 323.15 K | 0.0502
in 1,2-dichlorobenzene, 273.15 K | 0.00343
in 1,2-dichlorobenzene, 279.15 K | 0.00486
in 1,2-dichlorobenzene, 283.65 K | 0.00624
in 1,2-dichlorobenzene, 289.15 K | 0.0086
in 1,2-dichlorobenzene, 293.25 K | 0.0106
in 1,2-dichlorobenzene, 298.65 K | 0.0142
in 1,2-dichlorobenzene, 303.25 K | 0.0182
in 1,2-dichlorobenzene, 309.05 K | 0.024
in 1,2-dichlorobenzene, 313.25 K | 0.0302
in 1,2-dichlorobenzene, 318.95 K | 0.0395
in 1,2-dichlorobenzene, 323.35 K | 0.0475
in THF, 273.65 K | 0.051
in THF, 279.15 K | 0.0594
in THF, 284.15 K | 0.0678
in THF, 289.15 K | 0.0773
in THF, 293.75 K | 0.0865
in THF, 299.15 K | 0.0986
in THF, 303.25 K | 0.109
in THF, 308.45 K | 0.123
in THF, 313.15 K | 0.137
in THF, 318.15 K | 0.152
in THF, 323.15 K | 0.169
in acetone, 273.15 K | 0.00762
in acetone, 279.15 K | 0.0102
in acetone, 283.45 K | 0.0124
in acetone, 289.05 K | 0.0159
in acetone, 293.05 K | 0.0186
in acetone, 297.65 K | 0.0229
in acetone, 302.85 K | 0.0282
in acetone, 308.05 K | 0.035
in acetone, 313.15 K | 0.0425
in acetone, 317.15 K | 0.0489
in acetone, 323.15 K | 0.0598
in acetonitrile, 273.15 K | 0.00152
in acetonitrile, 279.15 K | 0.00222
in acetonitrile, 283.45 K | 0.00283
in acetonitrile, 289.05 K | 0.00387
in acetonitrile, 293.05 K | 0.0049
in acetonitrile, 297.65 K | 0.00624
in acetonitrile, 302.85 K | 0.00815
in acetonitrile, 308.05 K | 0.0108
in acetonitrile, 313.15 K | 0.014
in acetonitrile, 317.15 K | 0.0168
in acetonitrile, 323.15 K | 0.0217
in cyclohexanone, 273.15 K | 0.0233
in cyclohexanone, 279.15 K | 0.0292
in cyclohexanone, 283.65 K | 0.0341
in cyclohexanone, 289.15 K | 0.041
in cyclohexanone, 293.25 K | 0.0471
in cyclohexanone, 298.65 K | 0.056
in cyclohexanone, 303.25 K | 0.0654
in cyclohexanone, 309.05 K | 0.0778
in cyclohexanone, 313.25 K | 0.09
in cyclohexanone, 318.95 K | 0.105
in cyclohexanone, 323.35 K | 0.119
in dichloromethane, 273.15 K | 0.0132
in dichloromethane, 279.15 K | 0.0179
in dichloromethane, 283.45 K | 0.0226
in dichloromethane, 289.05 K | 0.0287
in dichloromethane, 293.05 K | 0.0345
in dichloromethane, 297.65 K | 0.0425
in dichloromethane, 302.85 K | 0.0534
in dichloromethane, 308.05 K | 0.0657
in dichloromethane, 312.15 K | 0.0798
in ethanol, 273.15 K | 0.00127
in ethanol, 279.15 K | 0.00172
in ethanol, 283.45 K | 0.00215
in ethanol, 289.05 K | 0.00281
in ethanol, 293.05 K | 0.00342
in ethanol, 297.65 K | 0.00426
in ethanol, 302.85 K | 0.00543
in ethanol, 308.05 K | 0.00695
in ethanol, 313.15 K | 0.00863
in ethanol, 317.15 K | 0.0103
in ethanol, 323.15 K | 0.013
in ethyl acetate, 273.15 K | 0.00842
in ethyl acetate, 279.15 K | 0.0114
in ethyl acetate, 283.45 K | 0.0139
in ethyl acetate, 289.05 K | 0.0178
in ethyl acetate, 293.05 K | 0.0209
in ethyl acetate, 297.65 K | 0.0256
in ethyl acetate, 302.85 K | 0.0317
in ethyl acetate, 308.05 K | 0.0395
in ethyl acetate, 313.15 K | 0.0483
in ethyl acetate, 317.15 K | 0.0551
in ethyl acetate, 323.15 K | 0.0679
in isobutanol, 273.15 K | 0.000771
in isobutanol, 279.15 K | 0.00114
in isobutanol, 283.65 K | 0.00149
in isobutanol, 289.15 K | 0.00208
in isobutanol, 293.25 K | 0.00258
in isobutanol, 298.65 K | 0.00355
in isobutanol, 303.25 K | 0.00446
in isobutanol, 309.05 K | 0.00613
in isobutanol, 313.25 K | 0.00753
in isobutanol, 318.95 K | 0.0097
in isobutanol, 323.35 K | 0.0119
in isopropanol, 273.15 K | 0.000527
in isopropanol, 279.15 K | 0.000822
in isopropanol, 283.65 K | 0.00111
in isopropanol, 289.15 K | 0.00164
in isopropanol, 293.25 K | 0.00206
in isopropanol, 298.65 K | 0.00298
in isopropanol, 303.25 K | 0.00389
in isopropanol, 309.05 K | 0.00542
in isopropanol, 313.25 K | 0.00677
in isopropanol, 318.95 K | 0.00891
in isopropanol, 323.35 K | 0.0114
in methanol, 273.15 K | 0.00126
in methanol, 279.15 K | 0.00171
in methanol, 283.45 K | 0.00209
in methanol, 289.05 K | 0.00276
in methanol, 293.05 K | 0.00333
in methanol, 297.65 K | 0.00409
in methanol, 302.85 K | 0.00513
in methanol, 308.05 K | 0.00648
in methanol, 313.15 K | 0.00795
in methanol, 317.15 K | 0.00934
in methanol, 323.15 K | 0.0117
in n-butanol, 273.15 K | 0.00141
in n-butanol, 279.15 K | 0.00198
in n-butanol, 283.45 K | 0.00248
in n-butanol, 289.05 K | 0.00338
in n-butanol, 293.05 K | 0.00411
in n-butanol, 297.65 K | 0.00509
in n-butanol, 302.85 K | 0.00663
in n-butanol, 308.05 K | 0.00843
in n-butanol, 313.15 K | 0.0108
in n-butanol, 317.15 K | 0.0127
in n-butanol, 323.15 K | 0.0159
in n-octanol, 273.15 K | 0.00126
in n-octanol, 279.15 K | 0.00187
in n-octanol, 283.65 K | 0.00248
in n-octanol, 289.15 K | 0.00352
in n-octanol, 293.25 K | 0.00449
in n-octanol, 298.65 K | 0.00627
in n-octanol, 303.25 K | 0.00789
in n-octanol, 309.05 K | 0.011
in n-octanol, 313.25 K | 0.0136
in n-octanol, 318.95 K | 0.0178
in n-octanol, 323.35 K | 0.022
in n-pentanol, 273.65 K | 0.00163
in n-pentanol, 279.15 K | 0.00226
in n-pentanol, 284.15 K | 0.00291
in n-pentanol, 289.15 K | 0.00386
in n-pentanol, 293.75 K | 0.00479
in n-pentanol, 299.15 K | 0.00631
in n-pentanol, 303.25 K | 0.00766
in n-pentanol, 308.45 K | 0.00965
in n-pentanol, 313.15 K | 0.0121
in n-pentanol, 318.15 K | 0.0151
in n-pentanol, 323.15 K | 0.0185
in n-propanol, 273.15 K | 0.00136
in n-propanol, 279.15 K | 0.00187
in n-propanol, 283.45 K | 0.00232
in n-propanol, 289.05 K | 0.00313
in n-propanol, 293.05 K | 0.00383
in n-propanol, 297.65 K | 0.00476
in n-propanol, 302.85 K | 0.00606
in n-propanol, 308.05 K | 0.00781
in n-propanol, 313.15 K | 0.00991
in n-propanol, 317.15 K | 0.012
in n-propanol, 323.15 K | 0.015
in toluene, 273.15 K | 0.0043
in toluene, 279.15 K | 0.00586
in toluene, 283.65 K | 0.00732
in toluene, 289.15 K | 0.00959
in toluene, 293.25 K | 0.0114
in toluene, 298.65 K | 0.0149
in toluene, 303.25 K | 0.0182
in toluene, 309.05 K | 0.0231
in toluene, 313.25 K | 0.0273
in toluene, 318.95 K | 0.0337
in toluene, 323.35 K | 0.0398
